One data set has as its system SW620^Gal3− cells. Put plainly: Tumour cell metastatic spread in mice (intravenous inoculation). In kind it is in vivo, Balb/c nude mice. The settings on record: 10 mg/kg/day subcutaneously; Galectin-3-suppressed SW620^Gal3− cells. As to the method: (§1) The compound of Formula I effect on cancer metastasis was assessed in Balb/c nude mice. Luciferase-transfected, Galectin-3-expressing colon cancer SW620^Gal3+ and Galectin-3-suppressed SW620^Gal3− cells were inoculated to mice intravenously and the compound of Formula I was administrated subcutaneously, 10 mg/kg/day for 3 consecutive days in the first week and then once every week. Metastasis was monitored by IVIS imaging. […] The animals were sacrificed five weeks after tumour cell inoculation and the number of metastasis nodules on the surface of the animal lungs were quantified (FIG. 12B). Administration of the compound of Formula I caused 88% reduction of lung metastasis of Galectin-3-expressing SW620^Gal3+ cells but had little effect on Galectin-3-suppressed SW620^Gal3− cells;
as §1, with “for 5” for “for 3”, “first” for “first week and then once every”, “Galectin-3-suppressed SW620^Gal3 cells.” for “Galectin-3-suppressed SW620^Gal3− cells;”
(§2) Female Balb/c nude mice aged 6-7 weeks were purchased from Charles River Laboratories (Margate, UK) and maintained in specific pathogen-free conditions with a 12:12 hour light:dark cycle. All animal studies were conducted with UK Home Office and local ethics committee approval.
(§3) Thirty-two mice were randomly divided into four groups (A to D). […] Tumour number on the surface of the lungs was assessed using a dissection microscope.

A further data set relates to SW620^Gal3+ cells. The data set is described as above. It counts as in vivo, Balb/c nude mice. The settings on record: 10 mg/kg/day subcutaneously. As to the method: as §1
as §1, with “for 5” for “for 3”, “first” for “first week and then once every”, “Galectin-3-suppressed SW620^Gal3 cells.” for “Galectin-3-suppressed SW620^Gal3− cells;”
as §2, §3

The subject of the next data set is SW620 cells. Put plainly: Tumour growth in mice (subcutaneous graft). The settings on record: 5 mg/kg subcutaneously, 3 times a week for 4 weeks. In kind it is in vivo, Balb/c nude mice. As to the method:
The compound of Formula I effect on tumour growth was assessed in Balb/c nude mice. Luciferase-transfected human colon cancer SW620 cells were grafted subcutaneously to mice and the compound of Formula I (5 mg/kg) was administrated subcutaneously, 3 times a week for 4 weeks. Tumour growths were monitored by IVIS imaging (FIG. 11A) and also measured by clipers.
The compound of Formula I effect on tumour growth was assessed in Balb/c nude mice. Luciferase-transfected human colon cancer SW620 cells were grafted subcutaneously to mice and the compound of Formula I (5 mg/kg) was administrated subcutaneously, 3 times a week for 4 weeks. Tumour growths were monitored by IVIS imaging and also measured by clipers.
as §2
Sixteen 6˜7 weeks old mice were randomly divided into two equal A and B groups (8 mice/group). The animals were injected s.c. with 2×10^6 ZsGreen- and luciferase-expressing SW620Gal3+ cells. […] Tumour size were measured with callipers every two days. […]

Data set [1] relates to Salmonella typhimurium strain TA98. Put plainly: Ames test (genotoxicity). In kind it is cell-based. The settings on record: TA98, up to 1 mM tested, with or without metabolic activation (S9). As to the method: (§4) Mutagenic potential of the compound of Formula I was assessed by Ames test in two Salmonella typhimurium strains TA98 and TA100 without and with metabolic activation (S9).
(§5) Effect of the compound inhibitors on genotoxicity was determined using the Salmonella typhimurium strains of TA 98 and TA 100 in the presence and absence of metabolic activation (S9). Each test concentration included the vehicle and positive controls. Briefly, the compounds were serially diluted in 24-well plates with or without the presence metabolic activation system (S9) and was incubated for 90 min at 37° C. in 250 rpm in a orbital shaking incubator. TA98 and TA100 were then introduced to the wells for 90 min. 50 μL aliquots from each well was dispensed into 384 well plates and incubated for 48 hrs at 37° C. in an incubator before positive wells were scored.
In general terms: The Ames test uses bacterial strains that need an amino acid and regain growth without it when mutated back.

Data set [2] concerns Salmonella typhimurium strain TA100. Description: Ames test (genotoxicity). It counts as cell-based. The settings on record: TA100, up to 1 mM tested, with or without metabolic activation (S9). As to the method:
as §4, §5

Data set [3] concerns THP-1 differentiated macrophages. Put plainly: Galectin-3-induced pro-inflammatory cytokine secretion, cytokine ELISA. Particulars: Galectin-3 10 μg/ml, various concentrations. In kind it is cell-based. As to the method:
Secretion of pro-inflammatory cytokines IL-6 (FIG. 7A), IL-1β (FIG. 7B) and TNFα (FIG. 7C) from THP-1 differentiated macrophages was analysed in the absence or presence of Galectin-3 (10 μg/ml) and various concentrations of the compound of Formula I by cytokine ELISA.
THP-1 monocytes (5×10^5 cells/ml) were differentiated into macrophages by incubation with 10 ng/ml Phorbol 12-myristate-13-acetate (PMA) for 48 h at 37° C. The differentiated cells were washed gently with medium before introduction of fresh medium without or with 10 μg/ml Galectin-3, and/or different concentrations of the inhibitors for 24 h at 37° C. The culture medium was collected and the concentrations of IL-6, TNFα and IL1β in the medium were measured by IL-6, TNFα and IL1β ELISA kits according to the manufacture's protocols.

For `C[C@H]1COc2c(N3CCN(C)CC3)c(F)cc3c(=O)c(C(=O)NNc4ccc(N)cc4)cn1c23` [Formula I], the “effect on lung metastasis” value in the data set on SW620^Gal3− cells is reported as “little effect”. The “lung metastasis in IVIS imaging” value with SW620^Gal3+ cells (14 days after tumour cell inoculation) is reported as “Substantially lower”. Further, in the data set on SW620^Gal3+ cells (five weeks after tumour cell inoculation), the “reduction of lung metastasis (metastasis nodules on lung surface)” value was found to be 88%. In addition, the “inhibition of tumour growth” value in the data set with SW620 cells was 51%. The mutagenic activity entry in data set [1] is on record as “no mutagenic activity”. Moreover, the mutagenic activity entry in data set [2] is “no mutagenic activity”. Besides, in data set [3], the “Galectin-3-induced secretion of IL-1β” value is given as “dose-dependent inhibition”, the “Galectin-3-induced secretion of IL-6” value is on record as “dose-dependent inhibition” and the “Galectin-3-induced secretion of TNFα” value is “dose-dependent inhibition”.

These data come from patent US20260137696A1, “Compositions Comprising an Inhibitor of Galectin-3” (University of Liverpool, priority 2023, published 2026).
